Data: patent publication US10087191B2, “Piperidine derivative and preparation method and pharmaceutical use thereof” (Jiangsu Hengrui Medicine Co., Ltd., priority 2015, dated 2018)

Tests used:
estrogen receptor (ER) = estrogen receptor (ER) (Homo sapiens (Human), UniProt P03372); experiment: Inhibition of the binding of estrogen (E) to estrogen receptor (ER), MCF-7/ERE-luciferase reporter cells; format: cell-based; conditions: MCF-7/ERE-luciferase cells, 0.1 nM estradiol, 24 hours; read-out: IC50 value of inhibition effect on the binding of E to ER
Sequence of estrogen receptor (ER) (P03372 whole entry): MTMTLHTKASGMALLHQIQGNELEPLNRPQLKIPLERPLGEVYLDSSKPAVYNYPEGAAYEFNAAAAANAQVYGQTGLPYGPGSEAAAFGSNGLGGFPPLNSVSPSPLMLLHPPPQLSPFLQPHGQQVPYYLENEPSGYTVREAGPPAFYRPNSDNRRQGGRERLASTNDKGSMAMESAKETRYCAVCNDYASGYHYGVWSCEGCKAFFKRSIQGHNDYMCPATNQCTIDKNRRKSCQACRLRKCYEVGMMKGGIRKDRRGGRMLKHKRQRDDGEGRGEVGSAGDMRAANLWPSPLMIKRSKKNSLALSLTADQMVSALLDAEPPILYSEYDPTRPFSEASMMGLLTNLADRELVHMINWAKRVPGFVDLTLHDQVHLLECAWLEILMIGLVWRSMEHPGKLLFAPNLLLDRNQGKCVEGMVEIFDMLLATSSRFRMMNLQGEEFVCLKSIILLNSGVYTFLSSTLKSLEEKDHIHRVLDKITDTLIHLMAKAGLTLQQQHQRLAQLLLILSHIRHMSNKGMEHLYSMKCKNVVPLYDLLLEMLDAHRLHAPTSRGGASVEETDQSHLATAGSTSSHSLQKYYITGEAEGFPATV
Protocol: The inhibition effect of the compounds on the binding of E to ER in vitro was tested by the following method.
The object of this experiment was to determine the inhibition effect of the compounds on the binding of E to ER, and the in vitro activity of the compounds was evaluated according to the IC50 value.
MCF-7/ERE-luciferase cells were inoculated into the MEM medium (hyclone, SH30024.01B) containing 10% charcoal stripped FBS (Moregate, FBSF), 1% sodium pyruvate (Sigma, Cat. No. S8636), 1% nonessential amino acids (Sigma, Cat. No. M7145) and 500 μg/ml G418 in a 96-well plate with a density of 30,000 cells/well, and the cells were incubated under the conditions of 37° C. and 5% CO2. […] After incubation for 24 hours, the medium was removed, then 0.1 nM estradiol (Sigma, Cat. No. E2758) and 10 μl of the drug diluted with the medium were added to each well, and the control group was added with DMSO. The plate was gently shaken and incubated in a incubator at 37° C., 5% CO2. After 24 hours, the cell culture medium was discarded.
The inhibition effect of the compounds of the present invention on the binding of E to ER was tested by the experiment described above.

MCF7 cells = experiment: Inhibition of the proliferation of MCF7 cells (Cell Titer-Glo); format: cell-based; conditions: Homo sapiens, MCF-7 cells, 72 hours, read-out: IC50 value of inhibition effect on the proliferation of MCF7 cells
Protocol: The object of this experiment was to determine the inhibition effect of the compounds on the proliferation activity of MCF7 cells, and the in vitro activity of the compounds was evaluated according to the IC50 value.
After incubation for 24 hours, the medium was removed, then 90 μl of the medium containing 2% FBS and 10 μl of the drug were added to each well, 10 μl of DMSO were added to the control group, and the blank group contained only 100 μl medium containing 2% FBS. The plate was gently shaken and incubated in a incubator at 37° C., 5% CO2. After 72 hours, 50 μl of mixed Cell Titer-Glo (Promega, Cat. No. G7571) were added to each well. The plate was shaken until the ingredients were well mixed, and placed at room temperature for 10 minutes, then the chemiluminescence signal value was determined.
The values of the chemiluminescence signals vs the logarithmic concentrations of the compounds were plotted using Graghpad Prism to obtain IC50 values.

Work on `CC1Cc2cc(NC(=O)OC(C)(C)C)ccc2C(c2c(F)cc(/C=C/C(=O)O)cc2F)N1CC(C)(C)F` [Example 31, (E)-3-(4-((1S,3R/1R,3S)-6-((tert-butoxycarbonyl)amino)-2-(2-fluoro-2-methylpropyl)-3-methyl-1,2,3,4-tetrahydroisoquinolin-1-yl)-3,5-difluorophenyl)acrylic acid] yielded an IC50 (estrogen receptor (ER)) of 84.1 nM.
Compound `CC1Cc2cc(OCC#N)ccc2C(c2c(F)cc(/C=C/C(=O)O)cc2F)N1CC(C)(C)F` [Example 33, (E)-3-(4-((1S,3R/1R,3S)-6-(cyanomethoxy)-2-(2-fluoro-2-methylpropyl)-3-methyl-1,2,3,4-tetrahydroisoquinolin-1-yl)-3,5-difluorophenyl)acrylic acid] has an IC50 (estrogen receptor (ER)) of 37.7 nM and an IC50 (MCF7 cells) of 7.78 nM.
Work on `CC1Cc2cc(C3CC3)ccc2C(c2c(F)cc(/C=C/C(=O)O)cc2F)N1CC(C)(C)F` [Example 34, (E)-3-(4-((1S,3R/1R,3S)-6-cyclopropyl-2-(2-fluoro-2-methylpropyl)-3-methyl-1,2,3,4-tetrahydroisoquinolin-1-yl)-3,5-difluorophenyl)acrylic acid] yielded an IC50 (estrogen receptor (ER)) of 18.4 nM.
Compound `CC1Cc2cc(OC3CCOCC3)ccc2C(c2c(F)cc(/C=C/C(=O)O)cc2F)N1CC(C)(C)F` [Example 36, (E)-3-(3,5-difluoro-4-((1S,3R/1R,3S)-2-(2-fluoro-2-methylpropyl)-3-methyl-6-((tetrahydro-2H-pyran-4-yl)oxy)-1,2,3,4-tetrahydroisoquinolin-1-yl)phenyl)acrylic acid] has an IC50 (estrogen receptor (ER)) of 24.9 nM.
With `CC1Cc2cc(O[C@H]3CCOC3)ccc2C(c2c(F)cc(/C=C/C(=O)O)cc2F)N1CC(C)(C)F` (stereo partly drawn) [Example 37, (E)-3-(3,5-difluoro-4-((1S,3R/1R,3S)-2-(2-fluoro-2-methylpropyl)-3-methyl-6-(((S)-tetrahydrofuran-3-yl)oxy)-1,2,3,4-tetrahydroisoquinolin-1-yl)phenyl)acrylic acid] the IC50 (estrogen receptor (ER)) was 13.7 nM and the IC50 (MCF7 cells) was 4.79 nM.
With `CC1CN(c2ccc3c(c2)CC(C)N(CC(C)(C)F)C3c2c(F)cc(/C=C/C(=O)O)cc2F)CCO1` [Example 38, (E)-3-(3,5-difluoro-4-((1S,3R/1R,3S)-2-(2-fluoro-2-methylpropyl)-3-methyl-6-(2-methylmorpholino)-1,2,3,4-tetrahydroisoquinolin-1-yl)phenyl)acrylic acid] the IC50 (estrogen receptor (ER)) was 4.42 nM and the IC50 (MCF7 cells) was 1.34 nM.
Work on `CC1Cc2cc(N3CCN(C)C(=O)C3)ccc2C(c2c(F)cc(/C=C/C(=O)O)cc2F)N1CC(C)(C)F` [Example 39, (E)-3-(3,5-difluoro-4-((1S,3R/1R,3S)-2-(2-fluoro-2-methylpropyl)-3-methyl-6-(4-methyl-3-oxopiperazin-1-yl)-1,2,3,4-tetrahydroisoquinolin-1-yl)phenyl)acrylic acid] yielded an IC50 (estrogen receptor (ER)) of 14.2 nM and an IC50 (MCF7 cells) of 2.34 nM.
`CC1Cc2cc(N3Cc4ccncc4C3)ccc2C(c2c(F)cc(/C=C/C(=O)O)cc2F)N1CC(C)(C)F` [Example 42, (E)-3-(3,5-difluoro-4-((1S,3R/1R,3S)-2-(2-fluoro-2-methylpropyl)-3-methyl-6-(1H-pyrrolo[3,4-c]pyridin-2(3H)-yl)-1,2,3,4-tetrahydroisoquinolin-1-yl)phenyl)acrylic acid] was tested, and the IC50 (estrogen receptor (ER)) was 8.1 nM and the IC50 (MCF7 cells) was 5 nM.
`Cc1ccc(-c2ccc3c(c2)CC(C)N(CC(C)(C)F)C3c2c(F)cc(/C=C/C(=O)O)cc2F)s1` [Example 43, (E)-3-(3,5-difluoro-4-((1S,3R/1R,3S)-2-(2-fluoro-2-methylpropyl)-3-methyl-6-(5-methylthiophen-2-yl)-1,2,3,4-tetrahydroisoquinolin-1-yl)phenyl)acrylic acid] showed an IC50 (estrogen receptor (ER)) of 4.98 nM and an IC50 (MCF7 cells) of 2.66 nM.
With `CC1Cc2cc(-c3cnn(C(C)C)c3)ccc2C(c2c(F)cc(/C=C/C(=O)O)cc2F)N1CC(C)(C)F` [Example 50, (E)-3-(3,5-difluoro-4-((1S,3R/1R,3S)-2-(2-fluoro-2-methylpropyl)-6-(1-isopropyl-1H-pyrazol-4-yl)-3-methyl-1,2,3,4-tetrahydroisoquinolin-1-yl)phenyl)acrylic acid] the IC50 (estrogen receptor (ER)) was 9.7 nM and the IC50 (MCF7 cells) was 4.86 nM.
With `CC(C)Cn1cc(-c2ccc3c(c2)CC(C)N(CC(C)(C)F)C3c2c(F)cc(/C=C/C(=O)O)cc2F)cn1` [Example 52, (E)-3-(3,5-difluoro-4-((1S,3R/1R,3S)-2-(2-fluoro-2-methylpropyl)-6-(1-isobutyl-1H-pyrazol-4-yl)-3-methyl-1,2,3,4-tetrahydroisoquinolin-1-yl)phenyl)acrylic acid] the IC50 (estrogen receptor (ER)) was 26 nM.
Compound `CC1Cc2cc(-c3ncco3)ccc2C(c2c(F)cc(/C=C/C(=O)O)cc2F)N1CC(C)(C)F` [Example 54, (E)-3-(3,5-difluoro-4-((1S,3R/1R,3S)-2-(2-fluoro-2-methylpropyl)-3-methyl-6-(oxazol-2-yl)-1,2,3,4-tetrahydroisoquinolin-1-yl)phenyl)acrylic acid] has an IC50 (estrogen receptor (ER)) of 9.41 nM and an IC50 (MCF7 cells) of 3.67 nM.
In the case of `CC1Cc2cc(-c3cnc4ccccc4c3)ccc2C(c2c(F)cc(/C=C/C(=O)O)cc2F)N1CC(C)(C)F` [Example 62, (E)-3-(3,5-difluoro-4-((1S,3R/1R,3S)-2-(2-fluoro-2-methylpropyl)-3-methyl-6-(quinolin-3-yl)-1,2,3,4-tetrahydroisoquinolin-1-yl)phenyl)acrylic acid], the IC50 (estrogen receptor (ER)) is reported as 13.6 nM and the IC50 (MCF7 cells) is reported as 16.1 nM.
Compound `CC1Cc2cc(-c3ccc4ncccc4c3)ccc2C(c2c(F)cc(/C=C/C(=O)O)cc2F)N1CC(C)(C)F` [Example 63, (E)-3-(3,5-difluoro-4-((1S,3R/1R,3S)-2-(2-fluoro-2-methylpropyl)-3-methyl-6-(quinolin-6-yl)-1,2,3,4-tetrahydroisoquinolin-1-yl)phenyl)acrylic acid] has an IC50 (estrogen receptor (ER)) of 1.7 nM and an IC50 (MCF7 cells) of 0.58 nM.
Compound `C[C@H]1Cc2cc3c(cc2[C@H](c2c(F)cc(/C=C/C(=O)O)cc2F)N1CC(C)(C)F)OCO3` [Example 72, (E)-3-(3,5-difluoro-4-((5R,7S)-6-(2-fluoro-2-methylpropyl)-7-methyl-5,6,7,8-tetrahydro-[1,3]dioxolo[4,5-g]isoquinolin-5-yl)phenyl)acrylic acid] has an IC50 (estrogen receptor (ER)) of 40.9 nM.
`CC1Cc2cc(C#N)ccc2C(c2c(F)cc(/C=C/C(=O)O)cc2F)N1CC(C)(C)F` [Example 93, (E)-3-(4-((1S,3R/1R,3S)-6-cyano-2-(2-fluoro-2-methylpropyl)-3-methyl-1,2,3,4-tetrahydroisoquinolin-1-yl)-3,5-difluorophenyl)acrylic acid] gave an IC50 (estrogen receptor (ER)) of 12.9 nM.
In the case of `C[C@H]1Cc2c(ccc3[nH]ncc23)[C@H](c2c(F)cc(/C=C/C(=O)O)cc2F)N1CC(C)(C)F` [Example 95, (E)-3-(3,5-difluoro-4-((6R,8S)-7-(2-fluoro-2-methylpropyl)-8-methyl-6,7,8,9-tetrahydro-3H-pyrazolo[4,3-f]isoquinolin-6-yl)phenyl)acrylic acid], the IC50 (estrogen receptor (ER)) is reported as 29.8 nM.
Work on `CCn1cc(-c2ccc3oc4c(c3c2)C[C@H](C)N(CC(C)(C)F)[C@H]4c2c(F)cc(/C=C/C(=O)O)cc2F)cn1` [Example 96, (E)-3-(4-((1S,3S)-6-(1-ethyl-1H-pyrazol-4-yl)-2-(2-fluoro-2-methylpropyl)-3-methyl-1,2,3,4-tetrahydrobenzofuro[2,3-c]pyridin-1-yl)-3,5-difluorophenyl)acrylic acid] yielded an IC50 (estrogen receptor (ER)) of 31.2 nM.
`C[C@H]1Cc2cc(-c3ccc4cnccc4c3)ccc2[C@H](c2c(F)cc(/C=C/C(=O)O)cc2F)N1CC(C)(C)F` [Example 99, (E)-3-(3,5-difluoro-4-((1R,3S)-2-(2-fluoro-2-methylpropyl)-3-methyl-1,2,3,4-tetrahydro-[6,6′-biisoquinolin]-1-yl)phenyl)acrylic acid] showed an IC50 (estrogen receptor (ER)) of 77.5 nM.
